Like-named read-outs stand apart in the source and are kept apart here.
Key:
[1] = target: T1, human muscarinic M4 receptor (Homo sapiens, UniProt P08173); experiment: Alphascreen Surefire phospho-ERK1/2 functional assay, M4; type: cell-based; conditions: for EC50: CHO cells stably expressing human M4, phospho-ERK1/2, * = variable results, read-out: pEC50 M4 (converted); for Emax: CHO; for selectivity for the M4 receptor relative to the M1 receptor: functional assay of Example A
T1 construct: expressed in transfected cells
T1 sequence (P08173 1-479): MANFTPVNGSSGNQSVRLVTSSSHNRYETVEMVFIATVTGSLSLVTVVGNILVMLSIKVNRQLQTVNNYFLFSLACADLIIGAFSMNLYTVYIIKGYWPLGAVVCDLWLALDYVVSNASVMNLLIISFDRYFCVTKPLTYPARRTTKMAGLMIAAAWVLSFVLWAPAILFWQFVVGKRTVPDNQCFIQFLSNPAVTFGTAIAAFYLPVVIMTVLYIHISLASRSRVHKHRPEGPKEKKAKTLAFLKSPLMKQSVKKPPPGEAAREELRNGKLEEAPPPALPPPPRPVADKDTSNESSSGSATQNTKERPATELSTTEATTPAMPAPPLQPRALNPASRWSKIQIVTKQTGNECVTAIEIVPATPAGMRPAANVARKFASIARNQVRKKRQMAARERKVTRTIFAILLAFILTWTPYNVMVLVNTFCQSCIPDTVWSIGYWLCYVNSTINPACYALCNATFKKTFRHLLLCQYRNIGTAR
Experimental: CHO cells stably expressing the human muscarinic M1, M2, M3 or M4 receptor were plated (25K/well) onto 96-well tissue culture plates in MEM-alpha+10% dialysed FBS. Once adhered, cells were serum-starved overnight. Agonist stimulation was performed by the addition of 5 μL agonist to the cells for 5 min (37° C.). Media was removed and 50 μL of lysis buffer added. After 15 min, a 4 μL sample was transferred to 384-well plate and 7 μL of detection mixture added. Plates were incubated for 2 h with gentle agitation in the dark and then read on a PHERAstar plate reader.
pEC50 and Emax figures were calculated from the resulting data for each receptor subtype.

[2] = target: T2, human muscarinic M1 receptor (Homo sapiens, UniProt P11229); experiment: Alphascreen Surefire phospho-ERK1/2 functional assay, M1; type: cell-based; conditions: for EC50: CHO cells stably expressing human M1, phospho-ERK1/2, * = variable results, read-out: pEC50 M1 (converted); for Emax: CHO
T2 sequence (P11229 1-460): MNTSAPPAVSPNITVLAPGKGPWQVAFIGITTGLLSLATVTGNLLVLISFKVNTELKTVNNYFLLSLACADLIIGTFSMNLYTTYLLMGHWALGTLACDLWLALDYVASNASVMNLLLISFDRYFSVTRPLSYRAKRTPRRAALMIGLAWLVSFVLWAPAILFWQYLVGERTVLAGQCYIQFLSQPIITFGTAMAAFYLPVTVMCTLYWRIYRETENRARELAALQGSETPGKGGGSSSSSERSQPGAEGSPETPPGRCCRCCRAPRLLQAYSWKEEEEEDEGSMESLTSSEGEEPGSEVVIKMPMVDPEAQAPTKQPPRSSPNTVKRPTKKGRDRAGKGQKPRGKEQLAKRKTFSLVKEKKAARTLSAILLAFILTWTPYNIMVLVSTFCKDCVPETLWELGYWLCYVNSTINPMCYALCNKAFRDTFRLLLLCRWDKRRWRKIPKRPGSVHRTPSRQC

[3] = read-out: % Emax cf. ACh, M4, CHO cells stably expressing human M4, relative to ACh
[4] = read-out: % Emax cf. ACh, M1, CHO cells stably expressing human M1, relative to ACh

| SMILES | EC50 [1] [nM] | Emax [1, 3] [%] | EC50 [2] [nM] | Emax [2, 4] [%] | Emax ([1]; read-out: % Emax cf. ACh, M4) [%] | Emax ([2]; read-out: % Emax cf. ACh, M1) [%] | selectivity for the M4 receptor relative to the M1 receptor [1] |
| --- | --- | --- | --- | --- | --- | --- | --- |
| COC(=O)N1CCC2(CC(N3CCC(c4ccnn4C)CC3)C2)C1 (mixture of isomers) [1-20 Mixture of diastereomers, methyl 2-[4-(1-methyl-1H-pyrazol-5-yl)piperidin-1-yl]-6-azaspiro[3.4]octane-6-carboxylate] | 1000 | 56 | > 20000 | 62 |  |  |  |
| CCOC(=O)N1CCC2(CC(N3CCC(c4nc(C(F)(F)F)c[nH]4)CC3)C2)C1 (single isomer, unassigned) [1-3 Isomer 2, ethyl 2-(4-(4-(trifluoromethyl)-1H-imidazol-2-yl)piperidin-1-yl)-6-azaspiro[3.4]octane-6-carboxylate] | 200 | 41 | 501 | 30 |  |  |  |
| CCOC(=O)N1CCC2(CC(N3CCC(c4nc(C#N)c[nH]4)CC3)C2)C1 (single isomer, unassigned) [1-4 Isomer 2, ethyl 2-[4-(4-cyano-1H-imidazol-2-yl)piperidin-1-yl]-6-azaspiro[3.4]octane-6-carboxylate] | 251 | 67 | 1000 | 55 |  |  |  |
| COC(=O)N1CCC2(CC(N3CCC(c4ncc(C)n4C)CC3)C2)C1 (single isomer, unassigned) [1-9 Isomer 2, methyl 2-[4-(1,5-dimethyl-1H-imidazol-2-yl)piperidin-1-yl]-6-azaspiro[3.4]octane-6-carboxylate] | 794 | 48 | > 20000 | 57 |  |  |  |
| CCOC(=O)N1CCC2(CC(N3CCC(c4ncc(C)n4C)CC3)C2)C1 (single isomer, unassigned) [1-10 Isomer 2, ethyl 2-[4-(1,5-dimethyl-1H-imidazol-2-yl)piperidin-1-yl]-6-azaspiro[3.4]octane-6-carboxylate] | 251 | 106 | 5010 | 62 |  |  |  |
| COC(=O)N1CCC2(CC(N3CCC(c4nc(C)cn4C)CC3)C2)C1 (single isomer, unassigned) [1-11 Isomer 2, methyl 2-[4-(1,4-dimethyl-1H-imidazol-2-yl)piperidin-1-yl]-6-azaspiro[3.4]octane-6-carboxylate] | 251 | 85 | 1580 | 98 |  |  |  |
| COC(=O)N1CCC2(CC(N3CCC(c4ncc(Cl)n4C)CC3)C2)C1 (single isomer, unassigned) [1-13 Isomer 2, methyl 2-[4-(5-chloro-1-methyl-1H-imidazol-2-yl)piperidin-1-yl]-6-azaspiro[3.4]octane-6-carboxylate] | 398 | 86 | 1580 | 61 |  |  |  |
| CCOC(=O)N1CCC2(CC(N3CCC(c4cc(N)n[nH]4)CC3)C2)C1 (single isomer, unassigned) [1-19 Isomer 2, ethyl 2-[4-(3-amino-1H-pyrazol-5-yl)piperidin-1-yl]-6-azaspiro[3.4]octane-6-carboxylate] | 7940 | 48 | 794 | 83 |  |  |  |
| CCOC(=O)N1CCC2(CC(N3CCC(c4ccn(C)n4)CC3)C2)C1 (single isomer, unassigned) [1-22 Isomer 2, ethyl 2-[4-(1-methyl-1H-pyrazol-3-yl)piperidin-1-yl]-6-azaspiro[3.4]octane-6-carboxylate] | > 20000 | 20 | 200 | 47 |  |  |  |
| CCOC(=O)N1CCC2(CC(N3CCC(c4nnc(CC)[nH]4)CC3)C2)C1 (single isomer, unassigned) [1-27 Isomer 2, ethyl 2-[4-(5-ethyl-1H-1,2,4-triazol-3-yl)piperidin-1-yl]-6-azaspiro[3.4]octane-6-carboxylate] | 398 | 41 | 1000 | 27 |  |  |  |
| CCOC(=O)N1CCC2(CC(N3CCC(c4nnco4)CC3)C2)C1 (single isomer, unassigned) [1-28 Isomer 2, ethyl 2-[4-(1,3,4-oxadiazol-2-yl)piperidin-1-yl]-6-azaspiro[3.4]octane-6-carboxylate] | 501 | 60 | 2000 | 57 |  |  |  |
| CCOC(=O)N1CCC2(CC(N3CCC(c4nc(C)no4)CC3)C2)C1 (single isomer, unassigned) [1-29 Isomer 2, ethyl 2-[4-(3-methyl-1,2,4-oxadiazol-5-yl)piperidin-1-yl]-6-azaspiro[3.4]octane-6-carboxylate] | 126 | 36 | 794 | 44 |  |  |  |
| CCOC(=O)N1CCC2(CC(N3CCC(c4nnn[nH]4)CC3)C2)C1 (single isomer, unassigned) [1-31 Isomer 2, ethyl 2-[4-(1H-tetrazol-5-yl)piperidin-1-yl]-6-azaspiro[3.4]octane-6-carboxylate] | 100 | 40 | 2510 | 34 |  |  |  |
| CCOC(=O)N1CCC2(CC(N3CCC(n4ccnn4)CC3)C2)C1 (single isomer, unassigned) [1-35 Isomer 2, ethyl 2-[4-(1H-1,2,3-triazol-1-yl)piperidin-1-yl]-6-azaspiro[3.4]octane-6-carboxylate] | 200 | 61 | 398 | 80 |  |  |  |
| CCOC(=O)N1CCC2(CC(N3CCC(n4cncn4)CC3)C2)C1 (single isomer, unassigned) [1-36 Isomer 2, ethyl 2-[4-(1H-1,2,4-triazol-1-yl)piperidin-1-yl]-6-azaspiro[3.4]octane-6-carboxylate] | 251 | 47 | 5010 | 73 |  |  |  |
| CCOC(=O)N1CCC2(CC(N3CCC(O)(c4ncc[nH]4)CC3)C2)C1 (single isomer, unassigned) [1-37 Isomer 2, ethyl 2-[4-hydroxy-4-(1 H-imidazol-2-yl)piperidin-1-yl]-6-azaspiro[3.4]octane-6-carboxylate] | 501 |  | 2510 |  | 126 | 78 |  |
| CCOC(=O)N1CCC2(CC(N3CCC(O)(c4nccn4C)CC3)C2)C1 (single isomer, unassigned) [1-39 Isomer 2, ethyl 2-[4-hydroxy-4-(1-methyl-1H-imidazol-2-yl)piperidin-1-yl]-6-azaspiro[3.4]octane-6-carboxylate] | 398 |  | 1000 |  | 97 | 49 |  |
| CCOC(=O)N1CCC2(CC(N3CCC(OC)(c4nccn4C)CC3)C2)C1 (single isomer, unassigned) [1-40 Isomer 2, ethyl 2-[4-methoxy-4-(1-methyl-1H-imidazol-2-yl)piperidin-1-yl]-6-azaspiro[3.4]octane-6-carboxylate] | 158 |  | > 20000 |  | 50 | 904 |  |
| COC(=O)N1CCC2(CC(N3CCC(c4nccn4C)CC3)C2)C1 (stereo not shown) [Example 1-6, methyl 2-[4-(1-methyl-1H-imidazol-2-yl)piperidin-1-yl]-6-azaspiro[3.4]octane-6-carboxylate] |  |  |  |  |  |  | highly selective for the M4 receptor relative to the M1 receptor |
| COC(=O)N1CCC2(CC(N3CCC(c4ncc(C)n4C)CC3)C2)C1 (stereo not shown) [Example 1-9, methyl 2-[4-(1,5-dimethyl-1H-imidazol-2-yl)piperidin-1-yl]-6-azaspiro[3.4]octane-6-carboxylate] |  |  |  |  |  |  | highly selective for the M4 receptor relative to the M1 receptor |
| CCOC(=O)N1CCC2(CC(N3CCC(c4ccnn4C)CC3)C2)C1 (stereo not shown) [Example 1-21, ethyl 2-[4-(1-methyl-1H-pyrazol-5-yl)piperidin-1-yl]-6-azaspiro[3.4]octane-6-carboxylate] |  |  |  |  |  |  | highly selective for the M4 receptor relative to the M1 receptor |
| CCOC(=O)N1CCC2(CC(N3CCC([C@@H]4CCCN4C(=O)NC)CC3)C2)C1 (stereo partly drawn) [Example 2-17, ethyl 2-{4-[(2S)-1-(methylcarbamoyl)pyrrolidin-2-yl]piperidin-1-yl}-6-azaspiro[3.4]octane-6-carboxylate] |  |  |  |  |  |  | highly selective for the M4 receptor relative to the M1 receptor |

Reference: patent publication US9926297B2, “Bicyclic AZA compounds as muscarinic M1 receptor and/or M4 receptor agonists” (Heptares Therapeutics Limited, priority 2014, dated 2018)
